Compared with `CN(C(=O)OC(C)(C)C)C(C)(C)C(=O)O`, `COC(=O)c1cc(C(=O)OC)c(C(=O)OC)cc1C(=O)OC` is lower in melting point: 153 to 157 °C for the first, 144 °C for the second.

Going from `c1cc2c(c3c1CCCC3)CCCC2` to `c1cc2c3c(ccc2c2c1CC2)CC3`, the melting point rises from 16.7 °C to 163 °C.

Going from `COC(=O)c1cc(C)n(C)n1` to `COC(=O)c1ccccc1CC#N`, the melting point falls from 93 °C to 48 °C.

Going from `CCC(CO)(CO)[N+](=O)[O-]` to `CCCCCOC(C)=O`, the melting point falls from 57.5 °C to -70.8 °C.

First: COC1=CC(=O)C(C#N)C(c2ccccc2)C1 (stereo not drawn)
Second: O=C1CC(=O)N(c2ccccc2)N1
The melting point of the first is lower: 167 °C for the first, 191 °C for the second.

First: O=C1OC(=O)C2=C1Cc1ccccc1C2
Second: COc1ccccc1C(=O)c1cc2c(cc1Br)OCCO2
The melting point of the first is higher: 241 to 247 °C for the first, 95 to 97 °C for the second.

Going from `CC1CC(=O)c2cc(F)ccc2O1` (stereo not drawn) to `COc1cc(F)ccc1C#N`, the melting point rises from 71 °C to 76 °C.

First: N#CO
Second: COc1ccc2c(c1)CC2C#N (stereo not drawn)
The melting point of the first is lower: -86 °C for the first, 48 to 56 °C for the second.

First: CON=O
Second: CCS(=O)CCSP(=O)(OC)OC (stereo not drawn)
The melting point of the first is higher: -16 °C for the first, -49 °C for the second.

First: Cc1ccc(CNC2=CC(=O)c3ccccc3C2=O)nc1
Second: Cc1ccc(-c2ccc(/C=C3\C=C(CC(C)C)OC3=O)o2)cc1
The melting point of the first is higher: 134 to 136 °C for the first, 78 °C for the second.

Going from `O=C1C2CC=CCC2C(=O)N1SC(Cl)(Cl)Cl` (stereo not drawn) to `CC(=O)c1ccc(N2C(=O)C=CC2=O)cc1`, the melting point falls from 178 °C to 156 °C.

Compared with `c1ccc2c(c1)c(Cc1cn(CN3CCCCC3)c3ccccc13)cn2CN1CCCCC1`, `CCC(=C(c1ccccc1)c1ccc(OCCN(C)C)cc1)c1ccccc1` is lower in melting point: 138 °C for the first, 96 °C for the second.

First: CC(=O)Oc1ccccc1C(=O)Cl
Second: Cc1nn(-c2ccccc2)nc1C(=O)Cl
The melting point of the first is lower: 49 °C for the first, 104 to 105 °C for the second.

Compared with `OCc1ccc(-c2ccccc2)cc1`, `O=C(c1ccc(O)cc1)c1ccccc1F` is higher in melting point: 101 to 105 °C for the first, 117 °C for the second.

First: COc1cccc(C=C2C(=O)NN=C2c2c(O)c3ccccc3n(C)c2=O)c1
Second: COc1ccc(/C=c2\sc3nc4ccccc4n3c2=O)cc1OC
The melting point of the first is higher: 254 °C for the first, 220 to 222 °C for the second.

First: CCOC(=O)c1ccc(NC(=O)C(C(F)(F)F)C(F)(F)F)cc1
Second: CCOC(=O)CC1Sc2ccccc2NC1=O (stereo not drawn)
The melting point of the first is higher: 166 °C for the first, 126 to 128 °C for the second.

Compared with `CC(C)(C1CCCCC1)C1CCCCC1`, `COc1ccc2c3c(n(C)c2c1)CCCC3` is higher in melting point: 15.6 °C for the first, 96 °C for the second.

First: Cc1nc(-c2ccc(CBr)cc2)no1
Second: CCC(C(=O)O)c1ccc(CC(C)C)cc1 (stereo not drawn)
The melting point of the first is higher: 103 to 104 °C for the first, 52 °C for the second.

First: CCCC(C)(N)P(=O)(O)O (stereo not drawn)
Second: NCS(=O)(=O)O
The melting point of the first is higher: 258 to 262 °C for the first, 180 to 185 °C for the second.

First: NC(=O)COc1ccccc1
Second: Nc1nsc(SCc2ccccc2)n1
The melting point of the first is lower: 102 °C for the first, 120 to 121 °C for the second.

First: Nc1cc(F)c(F)cc1C(=O)O
Second: Cc1cc(C)c2c(N)c(C(N)=O)sc2n1
The melting point of the first is lower: 182 °C for the first, 234 to 235 °C for the second.

`COc1cc2c(cc1OC)C(c1ccc(C)cc1)N(C(C)=O)CC2` (stereo not drawn) and `COc1cc(-c2coc3cc(O)c(OC)c(O)c3c2=O)cc(O)c1OC` cannot be ordered by melting point: 183 to 185 °C for the first, 185 °C for the second.

Compared with `O=C1NCCO1`, `Cc1cccc(O)c1[N+](=O)[O-]` is lower in melting point: 87 °C for the first, 37 °C for the second.

Going from `COCc1ccc(O)c([N+](=O)[O-])c1` to `O=Cc1ccc([N+](=O)[O-])cc1[N+](=O)[O-]`, the melting point falls from 123 °C to 72 °C.

Compared with `c1coc(CSSCc2ccco2)c1`, `Cc1ccc(C(c2ccc(C)o2)c2cc(Br)cc([N+](=O)[O-])c2O)o1` is higher in melting point: 10 °C for the first, 100 °C for the second.

First: O=C(O)C(O)C(O)C(O)C(O)C(=O)O (stereo not drawn)
Second: CN1CCN=C1C(C1=NCCN1C)C1=NCCN1C
The melting point of the first is lower: 230 °C for the first, 241 to 243 °C for the second.

`Fc1c(F)c(F)c(Sc2c(F)c(F)c(F)c(F)c2F)c(F)c1F` gave a melting point of 87 °C.

— a melting point compilation (Tetko et al.)
